The subject of the experiment is CD2F1 mice, L1210 leukemia ip, survival T/C. The experiment in a line: NCI In Vivo Anticancer Drug Screen. Data for tumor model L1210 Leukemia (intraperitoneal) in CD2F1 (CDF1) mice. To be noted: higher = longer survival. The procedure, abridged: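 Compound-dosed mice with transplantable tumor versus matched vehicle controls; endpoint ratio T/C reported.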
The mark [1] stands for this setting: endpoint: mean survival time, dose: 12.5 mg/kg/injection, schedule: Q04DX002 (ip), vehicle: saline with Tween-80.
The mark [2] stands for this setting: endpoint: mean survival time, dose: 100.0 mg/kg/injection, schedule: Q04DX003 (ip), vehicle: saline with Tween-80.
[3] abbreviates: endpoint: mean survival time, dose: 200.0 mg/kg/injection, schedule: Q04DX003 (ip), vehicle: saline with Tween-80.
[4] abbreviates: endpoint: mean survival time, dose: 400.0 mg/kg/injection, schedule: Q04DX003 (ip), vehicle: saline with Tween-80.
Setting [5] is: endpoint: mean survival time, dose: 100.0 mg/kg/injection, schedule: Q01DX001 (ip), vehicle: saline with Tween-80.
Setting [6] is: endpoint: mean survival time, dose: 200.0 mg/kg/injection, schedule: Q01DX001 (ip), vehicle: saline with Tween-80.
The mark [7] stands for this setting: endpoint: mean survival time, dose: 100.0 mg/kg/injection, schedule: Q04DX002 (ip), vehicle: saline with Tween-80.
[8] abbreviates: endpoint: mean survival time, dose: 50.0 mg/kg/injection, schedule: Q04DX002 (ip), vehicle: saline with Tween-80.
Setting [9] is: endpoint: mean survival time, dose: 100.0 mg/kg/injection, schedule: Q01DX009 (ip), vehicle: saline with Tween-80.
The mark [10] stands for this setting: endpoint: mean survival time, dose: 200.0 mg/kg/injection, schedule: Q01DX009 (ip), vehicle: saline with Tween-80.
Setting [11] is: endpoint: mean survival time, dose: 400.0 mg/kg/injection, schedule: Q01DX009 (ip), vehicle: saline with Tween-80.

The values below come from PubChem BioAssay AID256 (DTP/NCI, 2004).

Each structure is given as a SMILES string. Where “and” joins values, the source holds several entries; their conditions need not be identical. Equal values may be shown once. Inconclusive results and toxic doses are left out.

With `OC(c1ccccc1)c1ccccc1`, the T/C was 91 % of control (endpoint: mean survival time, dose: 100.0 mg/kg/injection, schedule: Q01DX009 (ip), vehicle: saline); 91 % of control (endpoint: mean survival time, dose: 200.0 mg/kg/injection, schedule: Q01DX009 (ip), vehicle: saline); 91 % of control (endpoint: mean survival time, dose: 400.0 mg/kg/injection, schedule: Q01DX009 (ip), vehicle: saline).

Turning to `NC(=S)N/N=C/c1ccc(F)cn1`, the T/C is 105 % of control (endpoint: mean survival time, dose: 11.0 mg/kg/injection, schedule: Q04DX003 (ip), vehicle: saline with Tween-80); 118 % of control under setting [1]; 110 % of control (endpoint: mean survival time, dose: 16.5 mg/kg/injection, schedule: Q04DX003 (ip), vehicle: saline with Tween-80); 110 % of control (endpoint: mean survival time, dose: 25.0 mg/kg/injection, schedule: Q04DX003 (ip), vehicle: saline with Tween-80).

`O=C1c2cccc3cccc(c23)C(=O)N1Cc1ccccc1`: the T/C reads like this: under setting [2], 98 % of control; under setting [3], 87 % of control; under setting [4], 91 % of control.

Consider `CCCCCCCCCCCCCCCCCC[N+]1(C)CCSCC1`, for which the T/C (endpoint: mean survival time, dose: 12.5 mg/kg/injection, schedule: Q01DX001 (ip), vehicle: saline with Tween-80) is 95 % of control; the T/C (endpoint: mean survival time, dose: 25.0 mg/kg/injection, schedule: Q01DX001 (ip), vehicle: saline with Tween-80) is 103 % of control; the T/C (endpoint: mean survival time, dose: 50.0 mg/kg/injection, schedule: Q01DX001 (ip), vehicle: saline with Tween-80) is 104 % of control; the T/C under setting [5] is 91 % of control and 101 % of control; the T/C under setting [6] is 101 % of control and 110 % of control.

Take `CC(=O)OC1(c2ccccc2)OC(=O)c2ccccc21` (configuration not stated): the T/C was 97 % of control under setting [7]; 91 % of control (endpoint: mean survival time, dose: 200.0 mg/kg/injection, schedule: Q04DX002 (ip), vehicle: saline with Tween-80); 108 % of control (endpoint: mean survival time, dose: 400.0 mg/kg/injection, schedule: Q04DX002 (ip), vehicle: saline with Tween-80).

On to `CC(C)CCCC(C)C1CCC2C3CCC45CC4C(=O)CCC5(C)C3CCC12C` (configuration not stated), for which the T/C was 102 % of control (endpoint: mean survival time, dose: 100.0 mg/kg/injection, schedule: Q04DX003 (ip), vehicle: acetone); 91 % of control under setting [2]; 93 % of control (endpoint: mean survival time, dose: 200.0 mg/kg/injection, schedule: Q04DX003 (ip), vehicle: acetone); 93 % of control under setting [3]; 89 % of control (endpoint: mean survival time, dose: 400.0 mg/kg/injection, schedule: Q04DX003 (ip), vehicle: acetone); 95 % of control under setting [4].

As for `c1ccc2c(c1)Sc1ccccc1N2CCCNC1=NCCO1`, the T/C runs as follows: (endpoint: mean survival time, dose: 25.0 mg/kg/injection, schedule: Q04DX002 (ip), vehicle: saline with Tween-80) 97 % of control; under setting [8], 94 % of control; under setting [5], 89 % of control; under setting [7], 94 % of control.

`COC(=O)c1nccnc1N`: the T/C is 96 % of control (endpoint: mean survival time, dose: 100.0 mg/kg/injection, schedule: Q04DX002 (ip), vehicle: saline); 105 % of control (endpoint: mean survival time, dose: 200.0 mg/kg/injection, schedule: Q04DX002 (ip), vehicle: saline); 113 % of control (endpoint: mean survival time, dose: 400.0 mg/kg/injection, schedule: Q04DX002 (ip), vehicle: saline).

For the compound `CC(=O)OC(C(=O)NC(CC(C)C)C(=O)O)c1ccccc1` (configuration not stated), the T/C reads like this: under setting [2], 98 % of control; under setting [3], 95 % of control; under setting [4], 103 % of control.

For the compound `Nc1ccn(C2CC3[O][Sn]([c]4ccccc4)([c]4ccccc4)[O]CC3O2)c(=O)n1` (configuration not stated), the T/C is 103 % of control (endpoint: mean survival time, dose: 6.25 mg/kg/injection, schedule: Q01DX005 (ip), vehicle: distilled water + Tween-80); 93 % of control (endpoint: mean survival time, dose: 12.5 mg/kg/injection, schedule: Q01DX005 (ip), vehicle: distilled water + Tween-80); 93 % of control (endpoint: mean survival time, dose: 25.0 mg/kg/injection, schedule: Q01DX005 (ip), vehicle: distilled water + Tween-80); 88 % of control (endpoint: mean survival time, dose: 50.0 mg/kg/injection, schedule: Q01DX005 (ip), vehicle: distilled water + Tween-80).

On to `CCOC(=O)NOP(=O)(N1CC1)N1CC1`, for which the T/C under setting [1] is 116 % of control, the T/C under setting [8] is 166 % of control and the T/C under setting [7] was 186 % of control.

On to `COc1cc(/C=C/c2ccccn2)cc(OC)c1OC`, for which the T/C runs as follows: under setting [2], 101 % of control; under setting [3], 91 % of control.

For the compound `Cc1ccc(S(=O)(=O)N(CCCc2c(C)nc(N)nc2Nc2ccccc2)c2ccccc2)cc1`, the T/C under setting [5] was 92 % of control.

For the compound `Nc1nc2c(C(=O)N3CCCC3)nnn2c2ccccc12`, the T/C was 100 % of control (endpoint: median survival time, dose: 6.25 mg/kg/injection, schedule: Q01DX009 (ip), vehicle: saline with Tween-80); 98 % of control (endpoint: median survival time, dose: 12.5 mg/kg/injection, schedule: Q01DX009 (ip), vehicle: saline with Tween-80); 97 % of control (endpoint: median survival time, dose: 25.0 mg/kg/injection, schedule: Q01DX009 (ip), vehicle: saline with Tween-80); 95 % of control (endpoint: median survival time, dose: 50.0 mg/kg/injection, schedule: Q01DX009 (ip), vehicle: saline with Tween-80); 95 % of control (endpoint: median survival time, dose: 100.0 mg/kg/injection, schedule: Q01DX009 (ip), vehicle: saline with Tween-80).

Regarding `CC(N)CCc1ccccc1` (configuration not stated), the T/C reads like this: (endpoint: mean survival time, dose: 12.5 mg/kg/injection, schedule: Q01DX009 (ip), vehicle: saline with Tween-80) 102 % of control; (endpoint: mean survival time, dose: 25.0 mg/kg/injection, schedule: Q01DX009 (ip), vehicle: saline with Tween-80) 100 % of control; (endpoint: mean survival time, dose: 50.0 mg/kg/injection, schedule: Q01DX009 (ip), vehicle: saline with Tween-80) 102 % of control.

As to `O=C1C(c2ccccc2)=C(c2ccccc2)C2=CC(c3ccccc3)=C(c3ccccc3)C(c3ccccc3)C12Br` (configuration not stated), the T/C under setting [2] was 90 % of control, the T/C under setting [3] is 90 % of control and the T/C under setting [4] is 89 % of control.

Regarding `O=[N+]([O-])C(Br)(CO)CO`, the T/C reads like this: (endpoint: mean survival time, dose: 4.7 mg/kg/injection, schedule: Q01DX009 (ip), vehicle: saline) 101 % of control; (endpoint: mean survival time, dose: 4.7 mg/kg/injection, schedule: Q04DX003 (ip), vehicle: saline) 98 % of control; (endpoint: mean survival time, dose: 9.4 mg/kg/injection, schedule: Q01DX009 (ip), vehicle: saline) 101 % of control; (endpoint: mean survival time, dose: 9.4 mg/kg/injection, schedule: Q04DX003 (ip), vehicle: saline) 96 % of control; (endpoint: mean survival time, dose: 18.8 mg/kg/injection, schedule: Q01DX001 (ip), vehicle: saline) 102 % of control; (endpoint: mean survival time, dose: 18.8 mg/kg/injection, schedule: Q01DX009 (ip), vehicle: saline) 95 % of control. Where the note is “endpoint: mean survival time, dose: 18.8 mg/kg/injection, schedule: Q04DX003 (ip), vehicle: saline”, the T/C is 105 % of control.

For the compound `O=CC(Cc1ccccc1)CC(O)c1ccccc1` (configuration not stated), the T/C is, setting by setting: under setting [5], 95 % of control; under setting [9], 107 % of control; under setting [6], 88 % of control; under setting [10], 96 % of control; (endpoint: mean survival time, dose: 400.0 mg/kg/injection, schedule: Q01DX001 (ip), vehicle: saline with Tween-80) 91 % of control; under setting [11], 96 % of control.

As to `CCOC(=O)C(C)OC(=O)c1ccccc1` (configuration not stated), the T/C is 103 % of control under setting [9]; 91 % of control under setting [2]; 105 % of control under setting [10]; 105 % of control under setting [3]; 100 % of control under setting [11]; 103 % of control under setting [4].

In the case of `O=C(O)c1cccc(-c2c3ccc(=O)cc-3oc3cc(O)ccc23)c1`, the T/C reads like this: under setting [2], 96 % of control; under setting [3], 100 % of control; under setting [4], 96 % of control.
